Experimental data: ChEMBL document CHEMBL1122422, “Resolution of etodolac and antiinflammatory and prostaglandin synthetase inhibiting properties of the enantiomers” (J Med Chem, 1983)

Species: Ovis aries
Assay: Effect of compound (400 uM) on biosynthesis of prostaglandins from tritiated arachidonic acid was evaluated in vitro; NE = No effect at the given concentration
Assay type: functional

CCc1cccc2c3c([nH]c12)C(CC)(CC(=O)O)OCC3 (single isomer, unassigned; (-))
Activity: No effect
